In the assay the test system is HeLa. Briefly: Downregulation of PMA-induced H1R mRNA expressed in human HeLa cells incubated for 1 hr prior to PMA stimulation by RT-PCR method. The assay is classed as functional, cell-based.
Where [1] appears, read: Homo sapiens, HeLa, read-out: IC50.

Broadly, the IC50 is the concentration that gives 50% inhibition. On to `NC(=O)c1ccc2occc2c1O`, for which the IC50 result (hela) was “Not Active”.

In the case of `COc1c(C(N)=O)ccc2occc12`, the half-maximal inhibitory concentration (IC50) under setting [1] is 75.3 µM and the IC50 (hela, read-out: IC50) was 83.7 µM.

For `COc1c(C(=O)O)ccc2occc12`, the IC50 entry (hela) was “Not Active”.

On to `COc1cc2occc2cc1C(=O)O`, for which the half-maximal inhibitory concentration (IC50) result (hela) is “Not Active”.

With `NC(=O)c1cc2ccoc2cc1O`, under setting [1], the 50% inhibitory concentration (IC50) was found to be 84.6 µM.

With `COc1cc2occc2cc1C(N)=O`, the 50% inhibitory concentration (IC50) under setting [1] was 49.1 µM.

Values taken from ChEMBL document CHEMBL3632618, “The isolation and synthesis of a novel benzofuran compound from Tephrosia purpurea, and the synthesis of several related derivatives, which suppress histamine H1 receptor gene expression” (Bioorg Med Chem, 2015).
